Test results published in patent US20190242874A1, “HUMAN EPITHELIAL CELL LINE FOR 3-D MODELIZING OF CANCER AND TREATMENT THEREOF” (GALDERMA RESEARCH & DEVELOPMENT, priority 2011, published 2019).

Columns and labels:
[1] = tested on: SHH/PTCH signaling pathway; assay: Response of the immortalized keratinocyte cell line to SHH/PTCH pathway agonist and antagonists; assay type: cell-based, human; conditions: conclusion statement; no concentration given
Procedure: Purmorphamine (SMO agonist) and GDC-0449 (SMO antagonist) were diluted in DMSO at stock concentrations of 50 mM and 10 mM, respectively. To avoid side effects and toxicity, the final concentration of DMSO was fixed to 0.1% DMSO.
Theses cells can be expanded in a simple defined medium and they can grow easily due to immortalization. This tool is 3D organotypic culture system to evaluate the efficacy of anti-tumoral molecules specifically targeting inappropriate activation of the SHH/PTCH pathway occurring in BCC but also in numerous non BCC cancers including other cancer implicating inappropriate activation of the SHH/PTCH pathway. Assessment of inhibitor efficacy is applicable in the long term by skin regeration in vivo using animal vector including the mouse or the mini pig sytems.

[2] = tested on: KNBCCS6 E6/E7 immortalized keratinocytes; assay: Organotypic skin reconstruction: epidermal invasion of KNBCCS6 E6/E7 keratinocytes into dermal equivalent of NBCCS6 fibroblasts (histology); assay type: cell-based, human; conditions: 10 mM inhibitor, 0.1% DMSO, added 24 hrs before raising at air-liquid interface; compared with FIG. 4A control (FIG. 4B, 4C)
Procedure: Organotypic skin reconstruction using KNBCCS E6/E7 was performed using standard protocols as described in (Bernerd et al., 2001). In brief 10^6 NBCCS6 primary fibroblasts cultured in standard culture medium as described above were embeded in a bovine collagen I lattice. After contraction (48 hrs) lattices were fixed on platic using a collagen glue, KNBCCS6 were then seeded (50 000 cells per lattice) within a stainless ring, left for 6 days in immersion; the day 6) before emersion (day 7), mounts were treated with appropriate concentration of SHH:PTCH pathway inhibitor with a final a 0.1% DMSO concentration until the end of experiment. Control cultures were treated with 0.1% DMSO. After 7 days of emersion at air-liquid interface, cultures were harvested for subsequent analyses including histology and assessment of tacer/reporter gene activity. (FIG. 3 and FIG. 4)
FIGS. 4B, 4C show the same as FIG. 4A, except that organotypic skin cultures were grown 24 hrs before being raised at air-liquid interface in the presence ce of […] of GDC-0449 (B) or […] (SANT1) SHH/PTCH pathway inhibitors.

SMILES | effect on SHH/PTCH signaling pathway in immortalized human keratinocyte cell line [1] | size and frequency of epidermal invasion [2]
CS(=O)(=O)c1ccc(C(=O)Nc2ccc(Cl)c(-c3ccccn3)c2)c(Cl)c1 [GDC-0449] | inhibition of the activation | substantially decreased
Cc1nn(-c2ccccc2)c(C)c1/C=N/N1CCN(Cc2ccccc2)CC1 [SANT1] | inhibition of the activation | substantially decreased
c1ccc2c(Oc3nc(Nc4ccc(N5CCOCC5)cc4)c4ncn(C5CCCCC5)c4n3)cccc2c1 [purmorphamine, Purmorphamine] | activation | 
